Results: US20240270673A1, “PROCESS AND SYSTEM FOR THE RECOVERY OF GLYOXYLIC ACID” (Avantium Knowledge Centre B.V., priority 2021, published 2024)

Assay: Low-temperature crystallization of oxalic acid from aqueous glyoxylic acid/oxalic acid solutions (Crystal16 parallel crystallizer), liquid phase concentration after equilibration
Assay type: physicochemical
Settings: liquid phase after equilibration over night
Text: Low-temperature crystallization experiments have been carried out on a series of solutions containing glyoxylic acid and oxalic acid at different concentrations.
Solutions containing glyoxylic acid and oxalic acid at different concentrations have been prepared and were cooled under controlled conditions in a Crystal16™ parallel crystallizer (Technobis Crystallization Systems). After reaching the set temperature the mixture as left to equilibrate over night after which a sample of the liquid phase was taken to determine the concentration of oxalic acid and glyoxylic acid after crystallization.

[1] = Entry 1, T setpoint 10 degree Celsius, at RT glyoxylic 150.4 gr/L, oxalic 58.8 gr/L
[2] = Entry 2, T setpoint 5 degree Celsius, at RT glyoxylic 150.4 gr/L, oxalic 58.8 gr/L
[3] = Entry 3, T setpoint 0 degree Celsius, at RT glyoxylic 150.4 gr/L, oxalic 58.8 gr/L
[4] = Entry 4, T setpoint −5 degree Celsius, at RT glyoxylic 150.4 gr/L, oxalic 58.8 gr/L
[5] = Entry 5, T setpoint 10 degree Celsius, at RT glyoxylic 310.6 gr/L, oxalic 44.1 gr/L
[6] = Entry 6, T setpoint 5 degree Celsius, at RT glyoxylic 310.6 gr/L, oxalic 44.1 gr/L
[7] = Entry 7, T setpoint 0 degree Celsius, at RT glyoxylic 310.6 gr/L, oxalic 44.1 gr/L
[8] = Entry 8, T setpoint −5 degree Celsius, at RT glyoxylic 566.8 gr/L, oxalic 29.5 gr/L

| SMILES | Oxalic concentration at setpoint [1] [gr/L] | Oxalic concentration at setpoint [2] [gr/L] | Oxalic concentration at setpoint [3] [gr/L] | Oxalic concentration at setpoint [4] [gr/L] | Oxalic concentration at setpoint [5] [gr/L] | Oxalic concentration at setpoint [6] [gr/L] | Oxalic concentration at setpoint [7] [gr/L] | Oxalic concentration at setpoint [8] [gr/L] | Glyoxylic concentration at setpoint [1] [gr/L] | Glyoxylic concentration at setpoint [2] [gr/L] | Glyoxylic concentration at setpoint [3] [gr/L] | Glyoxylic concentration at setpoint [4] [gr/L] | Glyoxylic concentration at setpoint [5] [gr/L] | Glyoxylic concentration at setpoint [6] [gr/L] | Glyoxylic concentration at setpoint [7] [gr/L] | Glyoxylic concentration at setpoint [8] [gr/L] |
| --- | --- | --- | --- | --- | --- | --- | --- | --- | --- | --- | --- | --- | --- | --- | --- | --- |
| O=C(O)C(=O)O [oxalic acid] | 36.3 | 32.70 | 27.04 | 22.37 | 29.07 | 21.83 | 19.25 | 9.57 |  |  |  |  |  |  |  |  |
| O=CC(=O)O [glyoxylic acid, Glyoxylic acid] |  |  |  |  |  |  |  |  | 156.1 | 160.62 | 157.73 | 161.70 | 326.42 | 323.65 | 332.54 | 573.48 |
